Data on 3 compounds can be found in patent US20120022121A1, “INDOLES, DERIVATIVES AND ANALOGS THEREOF AND USES THEREFOR” (priority 2007, published 2012).

A word on the IC50: it is the concentration that gives 50% inhibition. The term EC50 denotes the concentration at which the effect is half-maximal.

Read-outs that look alike come from different tables or passages of the source.

In one data set the test system is PC-3 xenograft. The experiment in a line: Antitumor activity in PC-3 xenograft. The class given is in vivo, Balb/c mice. The note with it: 15 mg/kg/d for 4 days. As to the method: PC-3 tumor cells (2×10^6 cells) were suspended in saline and injected S.C. in both flanks of recipient mice (n=15). Tumor size was measured every other day and volume calculated as V=π/6*(length)x(width)^2 (75). […] Tumor growth and body weight was monitored every other day for the remainder of the study.

Data set [1] concerns MCF-7. The conditions noted are these: MCF-7 cells, literature value (Rose 1995); cited from earlier work.
Data set [2] has as its system HT-29. The note with it: HT-29 cells, literature value (Rose 1995); cited from earlier work.
For data set [3], the system named is K562/Dox. Kind of data set: Cell viability MTT assay, 96 h. The format is cell-based. The note with it: Homo sapiens, doxorubicin-resistant. As for the experimental part: (§1) Cells were seeded in 96-well plates and incubated with different concentrations of compound 13, 68 or other anticancer drugs for 96 h. Cell viability was quantitated by MTT assay. […] Table 4 is a comparison of the IC50 of compounds 13, 68 and other anticancer drugs in the K562 and doxorubicin-resistant K562/DOX cell lines.
A general note: Tetrazolium assays rely on reduction of a dye to a coloured formazan, in cell work by metabolically active cells.

Data set [4] relates to K562. The experiment in a line: Cell viability MTT assay, 96 h. The format is cell-based. The conditions noted are these: Homo sapiens. As to the method:
as §1

The test system of another data set is MES-SA/DX5 xenografts. The experiment in a line: In vivo antitumor efficacy, MES-SA/DX5 xenograft. The conditions noted are these: MES-SA/DX5 xenograft, 5 mg/kg, q2d, i.p. As to the method:
(§2) The control group was treated with vehicle (10% DMSO in PEG300).

The subject of data set [5] is PC-3 cells. Kind of data set: Indirect immunofluorescence microscopy of microtubules. The conditions noted are these: 24 h, anti-α-tubulin-FITC. The format is cell-based, human. As for the experimental part:
PC-3 cells were plated on poly-D-lysine coated glass cover slips in 6-well plates (5×10^4 cells/well) the day before treatment. After cells were incubated with cytotoxic agents at 37° C. for 24 h, cells were fixed on the cover slips with 4% formaldehyde in PBS for 10 min and permeabilized by 2% Triton-X in PBS for 5 min at rt. Fixed cells were blocked with 3% bovine serum albumin in TBST for 30 min and incubated with anti-α-tubulin-FITC antibody (1:100 dilution) at 4° C. overnight. Cover slips were mounted on slides using mounting medium with 4′,6-diamidino-2-phenylindole (DAPI), followed by microscopic analysis with a Zeiss Axioplan 2 fluorescent microscope (Carl Zeiss, Thornwood, N.Y.). Images were acquired with a Zeiss Axiocam HRc, using Zeiss AxioVision.

A further data set concerns MES-SA xenografts. Kind of data set: In vivo antitumor efficacy, MES-SA xenograft. Details: species or system mice. The note with it: 5 mg/kg, q2d, i.p. As for the experimental part: as §2
The next data set relates to HEK293-MRP1. The experiment in a line: Growth inhibition assay (96 h). The class given is cell-based, human. The conditions noted are these: for resistance factor (ratio of IC50 resistant subline to parental cell line): HEK293-MRP1 vs HEK293-pcDNA3.1.
For data set [6], the system named is MRP1 (over-expressed in the cells). The experiment in a line: Growth inhibition assay (96 h). The format is cell-based, human. The note with it: human, HEK293 cells over-expressing MRP1 (HEK293-MRP1); HEK293-MRP1, MRP1 over-expressed, 96 h.
In data set [7] the test system is human cancer cell lines from prostate, colon, breast, and bladder. Kind of data set: Cell proliferation by SRB assay, panel of cell lines. The format is cell-based. The note with it: read-out: IC50 values, range over cell lines. As to the method: (§3) MTT (3-(4,5-dimethylthiazol-2-yl)-2,5-diphenyltetrazolium bromide) assay was also used for the leukemia cell lines. […] Cells were stained with SRB solution or MTT solution.
Cell proliferation was measured by SRB assay.
On the technique in general: The SRB assay estimates cell density from bound dye.

The test system of data set [8] is K562/Dox. Kind of data set: Growth inhibition assay (MTT, 96 h). The format is cell-based, human.
Excerpt: as §3

The subject of the next data set is MES-SA/DX5. Kind of data set: Growth inhibition assay (96 h). The class given is cell-based, human. The conditions noted are these: MES-SA/DX5 vs MES-SA (P-gp).
Excerpt: as §3

For another data set, the system named is HEK293-pcDNA3.1. The experiment in a line: Growth inhibition assay (96 h). The format is cell-based, human. The note with it: HEK293-pcDNA3.1 (control for MRP).
Excerpt: as §3

The test system of another data set is PC-3 xenografts. The experiment in a line: In vivo antitumor efficacy, PC-3 xenograft. The note with it: 5 mg/kg.
Data set [9] concerns MRP2 (over-expressed in the cells). The experiment in a line: Growth inhibition assay (96 h). The format is cell-based, human. The note with it: human, HEK293 cells over-expressing MRP2 (HEK293-MRP2); HEK293-MRP2, MRP2 over-expressed, 96 h.
The next data set deals with HEK293-MRP2. The experiment in a line: Growth inhibition assay (96 h). The format is cell-based, human. The note with it: for resistance factor (ratio of IC50 resistant subline to parental cell line): HEK293-MRP2 vs HEK293-pcDNA3.1.
In data set [10] the test system is K562. The experiment in a line: Growth inhibition assay (MTT, 96 h). The format is cell-based. The conditions noted are these: Homo sapiens, K562 (parental).
Excerpt: as §3

For the next data set, the system named is TSU-Pr1. The experiment in a line: Growth inhibition assay (SRB, 96 h). The class given is cell-based. The conditions noted are these: Homo sapiens, TSU-Pr1, 96 h.
Excerpt: as §3

The test system of data set [11] is MCF-7. Kind of data set: Growth inhibition assay (SRB, 96 h). The conditions noted are these: Homo sapiens, MCF7; MCF-7, 96 h. The class given is cell-based.
Excerpt: as §3

Data set [12] concerns HT-29. Kind of data set: Growth inhibition assay (SRB, 96 h). The format is cell-based. The note with it: Homo sapiens, HT-29, 96 h.
Excerpt: as §3

Another data set has as its system PC-3. The experiment in a line: Growth inhibition assay (SRB, 96 h). The note with it: Homo sapiens, PC-3, 96 h. The class given is cell-based, human.
Excerpt: as §3

For data set [13], the system named is PC-3 cells. The experiment in a line: Cell cycle analysis (PI staining, FACS). The format is cell-based, human. The note with it: Homo sapiens; PC-3, 24 h, 0.1 nM to 1 μM; read-out: EC50 of cell cycle arrest in G2M phase. As for the experimental part:
Cell cycle distribution was determined by propidium iodide (PI) staining. Treated cells were washed with PBS and fixed with 70% ice-cold ethanol overnight. Fixed cells were then stained with 20 μg/mL of PI in the presence of RNase A (300 μg/mL) at 37° C. for 30 min. Cell cycle distribution was analyzed by fluorescence-activated cell sorting (FACS).

For the next data set, the system named is HEK293-482R2. The experiment in a line: Growth inhibition assay (96 h). The format is cell-based, human. The conditions noted are these: HEK293-482R2, BCRP over-expressed, 96 h.
The test system of a further data set is HEK293-pcDNA3-10. The experiment in a line: Growth inhibition assay (96 h). The class given is cell-based, human. The conditions noted are these: HEK293-pcDNA3-10 (control for BCRP).
Excerpt: as §3

On to `CC(=O)O[C@H]1C(=O)[C@@]2(C)[C@H]([C@H](OC(=O)c3ccccc3)[C@]3(O)C[C@H](OC(=O)[C@H](O)[C@@H](NC(=O)c4ccccc4)c4ccccc4)C(C)=C1C3(C)C)[C@]1(OC(C)=O)CO[C@@H]1C[C@@H]2O` [Taxol], for which the PC-3 xenograft growth result with PC-3 xenograft is listed as “potently suppressed”. Further, the body weight result with PC-3 xenograft is on record as “significant decreases in body weight”. Besides, the IC50 in the data set on MCF-7 [1] was roughly 2.5 nM; with HT-29 [2], roughly 2.5 nM; in the data set with K562/Dox [3] it was 1480 ± 480 nM; with K562 [4] it was 12.2 ± 0.2 nM.

As for `CC(=O)O[C@@]12CO[C@@H]1C[C@H](O)[C@@]1(C)C(=O)[C@H](O)C3=C(C)[C@@H](OC(=O)[C@H](O)[C@@H](NC(=O)OC(C)(C)C)c4ccccc4)C[C@@](O)([C@@H](OC(=O)c4ccccc4)[C@H]21)C3(C)C` [Docetaxel], the “TGI (tumor growth inhibition)” value was found to be 9% with MES-SA/DX5 xenografts and 54% in the data set on MES-SA xenografts. In addition, in the data set with PC-3 cells [5], the “microtubule changes by immunofluorescence” value is “stabilization of microtubules”. Moreover, the “resistance factor (ratio of IC50 resistant subline to parental cell line)” value is recorded as “(7.2)” with HEK293-MRP1; 7.2 in the data set on HEK293-MRP1 (listed as docetaxel); “(203)” in the data set on K562/Dox [8] (K562/Dox vs K562 (P-gp)); “(13)” in the data set on MES-SA/DX5; “(7.6)” with HEK293-MRP2; 7.6 in the data set on HEK293-MRP2 (listed as docetaxel). Also, the half-maximal inhibitory concentration (IC50) at 96 h is 31.3 ± 5 nM in data set [6] and 33.1 ± 4 nM in data set [9]. The half-inhibitory concentration (IC50) is 1.1 to 6.3 nM in [7]; 548 ± 76 nM in the data set on K562/Dox [8] (Homo sapiens, K562/Dox, P-gp over-expressed, 96 h); 4.4 ± 2 nM in the data set on HEK293-pcDNA3.1 (Homo sapiens); 2.7 ± 1 nM with K562 [10]; 2.6 ± 0.9 nM in the data set on TSU-Pr1; 3.8 ± 0.8 nM in the data set on MCF-7 [11]. The IC50 in the data set with HT-29 [12] came out at 4.1 ± 0.2 nM; in the data set on PC-3 it was 6 nM. In addition, the “end of study survival rate” value in the data set with PC-3 xenografts (PC-3 xenograft, 2 days/week) is “less than 30%”. Also, the “mice survived after 3 weeks” value with PC-3 xenografts (male, nu/nu, mouse, in vivo, 3 weeks) came to 70%. Besides, the EC50 in the data set with PC-3 cells [13] came out at 14 nM.

`CCc1c2c(nc3ccc(O)cc13)-c1cc3c(c(=O)n1C2)COC(=O)[C@]3(O)CC` [SN-38]: the half-maximal inhibitory concentration (IC50) in the data set with HEK293-MRP1 (HEK293-MRP1, MRP1 over-expressed, 96 h) was determined as 17.7 ± 1 nM; in the data set on HEK293-482R2 it was 94.3 ± 20 nM; in the data set on HEK293-pcDNA3.1 it was 8.4 ± 1 nM; in the data set with HEK293-pcDNA3-10, 2.9 ± 0.3 nM; in the data set with HEK293-MRP2 (HEK293-MRP2, MRP2 over-expressed, 96 h), 12.4 ± 1 nM.
